Here are results for one compound from US20150272939A1, “Identification of Small Molecule Inhibitors of Jumonji AT-Rich Interactive Domain 1A (JARID1A) and 1B (JARID1B) Histone Demethylase” (Yale University, priority 2012, published 2015).

In assay [1] the target is T1, JARID1B (Homo sapiens, UniProt Q9UGL1).
T1 construct: The FLAG tagged full length JARID1B enzyme was expressed in Sf21 insect cells using FLAG-JARID1B baculoviruses; FLAG (N); made in house; host or cells: Sf21 insect cells (baculovirus)
Briefly: FLAG-JARID1B histone demethylase assay with AlphaScreen detection (HTS and dose response).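 Also: FLAG-tagged JARID1B at 4 nM acting on a biotinylated H3K4me3 peptide, demethylation read by AlphaScreen luminescence, with hits checked against bio-H3K4me2 without enzyme.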 The assay is classed as biochemical. In general terms: In Alpha technology, singlet oxygen from a donor bead excites a nearby acceptor bead.

Assay [2] addresses T2, UTX (Homo sapiens, UniProt O15550).
T2 construct: His (N); FLAG (N); made in house; host or cells: Sf21 insect cells (baculovirus)
Nature of the assay: His-FLAG-UTX H3K27me3 demethylase assay with AlphaScreen detection. The assay is classed as biochemical. As to conditions: compound 10 μM, 64 nM bio-H3K27me3 peptide. The method, then: (§1) Histone demethylase assays were performed in 384 well white plates (Corning 3574). Demethylase buffer conditions for FLAG-JARID1B were as follows: 10 μM α-KG, 100 μM ascorbate, 50 μM (NH4)2Fe(SO4)2, 50 mM Hepes (pH 7.5), 0.01% (v/v) Tween 20, and 0.1% (w/v) bovine serum albumin. The demethylase reactions included 64 nM bio-H3K4me3 peptide alone or in the presence of 4 nM FLAG-JARID1B enzyme in a 10 μl reaction at 25° C. for 30 minutes. As a positive control, 64 nM bio-H3K4me2 peptide was assayed in the absence of enzyme. Assay conditions for FLAG-JARID1C is the same as for FLAG-JARID1B except that 20 nM enzyme was used. For FLAG-JARID1A, the demethylase buffer was similar to FLAG-JARID1B, except that 125 μM α-KG and 13 nM FLAG-JARID1A enzyme were used. […]
(§2) The AlphaScreen General IgG (Protein A) detection kit was obtained from PerkinElmer. Demethylated H3K4 products were detected using AlphaScreen antibody/bead mix containing 7.5 mM ethylenediaminetetraacetic acid (EDTA) and 0.15 μg/ml anti-H3K4me1 antibody in a final volume of 20 μl. […] The luminescence signal was measured using the Envision (PerkinElmer) or Pherastar (BMG Labtech) Platereaders.

Assay [3] addresses T3, JMJD3 (Homo sapiens, UniProt O15054).
T3 construct: FLAG (N); purchased BPS Bioscience 50115
Nature of the assay: FLAG-JMJD3 H3K27me3 demethylase assay with AlphaScreen detection. As to conditions: compound 10 μM, 64 nM bio-H3K27me3 peptide. Format: biochemical. The method, then:
as §1, §2

Assay [4] has as its system HeLa cells overexpressing full-length JARID1B. Briefly: H3K4me3 immunofluorescence in cells overexpressing 3xHA-JARID1B. Format: cell-based. The following applies: 10 μM or 30 μM, 24 hours. The method, then:
pcDNA3.1(−)-3×HA-JARID1B construct was generated by inserting 3×HA-JARID1B between BamHI and XbaI of pcDNA3.1(−) vector. MCF7 cells were plated on 12 mm circle coverslips in 24-well plates and transfected with pcDNA3.1(−)-3×HA-JARID1B in the presence of 0, 10 or 30 μM PBIT. After incubation for 24 hours, the cells were fixed, permeabilized, and stained with antibodies against HA and H3K4me3 for 2 hours. The coverslips were then incubated with anti-mouse Alexa-546 (Invitrogen, A-11003) and goat anti-rabbit Envision (Dako, K4002) for 1 hour. Cy5-Tyramide (Perkin Elmer, NEL775001KT) and 4,6-diamidino-2-phenylindole dihydrochloride (DAPI) (Biotium, 40011) were used to visualize 3×HA-tagged JARID1B and nuclei, respectively. The slides were sealed and analyzed under an Olympus fluorescence microscope.
To determine whether JARID1B could be inhibited by PBIT in cells, HeLa cells overexpressing full-length JARID1B were treated with 10 μM or 30 μM PBIT. As expected, in JARID1B transfected cells, the levels of H3K4me3 decreased dramatically compared with untransfected cells (FIG. 5).

In assay [5] the test system is MCF10A cells. Briefly: WST-1 cell proliferation assay. As to conditions: 10 μM, 72 hrs. The assay is classed as cell-based, human. As for the experimental part: (§3) The colorimetric assay (WST-1 reagent) from Roche (11644807001) was performed in 96 well white clear bottom plates (Costar, 3610). 1,000 cells were seeded per well (in quadruplicate) overnight, and PBIT was added to the cells to the indicated concentration for 72 hrs. 0.01% DMSO was included as the control. The WST-1 reagent was added (5 μl per well) for 4 hrs, and OD 440 nm absorbance (which reflects the number of viable cells) was measured with the BioTek Synergy Mx Platereader.
Background: Tetrazolium dyes change colour on reduction, which living cells bring about.

In assay [6] the test system is MCF7 cells. Briefly: WST-1 cell proliferation assay. As to conditions: 10 μM, 72 hrs. The assay is classed as cell-based, human. As for the experimental part: as §3
Assay [7] relates to UACC-812 cells. Briefly: WST-1 cell proliferation assay. Format: cell-based, human. As to conditions: 10 μM, 72 hrs. As for the experimental part: as §3
Assay [8] concerns SKBR3-R cells (trastuzumab resistant). Nature of the assay: WST-1 cell proliferation assay. The assay is classed as cell-based. The following applies: 30 μM.
In assay [9] the test system is SKBR3-S cells (trastuzumab sensitive). Briefly: WST-1 cell proliferation assay. Format: cell-based. The following applies: 30 μM. The method, then: as §3
Assay [10] deals with YUAME melanoma cells. Nature of the assay: WST-1 cell proliferation assay. Format: cell-based, human. The following applies: 0, 10 and 30 μM. As for the experimental part: as §3
(§4) A panel of mouse and human melanoma cells was treated with 0, 10 and 30 μM PBIT and their proliferation rates were assessed using WST-1 assays.

The test system of assay [11] is YULAC melanoma cells. Nature of the assay: WST-1 cell proliferation assay. The assay is classed as cell-based, human. The following applies: 0, 10 and 30 μM. The method, then: as §3, §4
The test system of assay [12] is YURIF melanoma cells. Briefly: WST-1 cell proliferation assay. The assay is classed as cell-based, human. The following applies: 0, 10 and 30 μM. The method, then:
as §3, §4

Assay [13] addresses T4, JMJD2E (Homo sapiens, UniProt B2RXH2).
T4 sequence (B2RXH2 1-337 limits assumed): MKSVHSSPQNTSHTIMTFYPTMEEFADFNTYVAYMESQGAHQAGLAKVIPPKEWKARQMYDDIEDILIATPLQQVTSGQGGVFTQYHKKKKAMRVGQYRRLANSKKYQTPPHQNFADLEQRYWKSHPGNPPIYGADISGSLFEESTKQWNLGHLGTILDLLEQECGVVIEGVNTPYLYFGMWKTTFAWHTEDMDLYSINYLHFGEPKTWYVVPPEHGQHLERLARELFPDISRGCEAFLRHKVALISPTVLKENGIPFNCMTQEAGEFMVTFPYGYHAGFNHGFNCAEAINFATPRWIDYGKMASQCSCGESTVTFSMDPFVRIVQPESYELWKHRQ
The following applies: King et al., 2010; cited from earlier work.

Structures are written as SMILES. “Also recorded” adds a separate entry of the source. Where two headings read alike, the source gives them in different places.

T1 sequence (Q9UGL1 whole entry): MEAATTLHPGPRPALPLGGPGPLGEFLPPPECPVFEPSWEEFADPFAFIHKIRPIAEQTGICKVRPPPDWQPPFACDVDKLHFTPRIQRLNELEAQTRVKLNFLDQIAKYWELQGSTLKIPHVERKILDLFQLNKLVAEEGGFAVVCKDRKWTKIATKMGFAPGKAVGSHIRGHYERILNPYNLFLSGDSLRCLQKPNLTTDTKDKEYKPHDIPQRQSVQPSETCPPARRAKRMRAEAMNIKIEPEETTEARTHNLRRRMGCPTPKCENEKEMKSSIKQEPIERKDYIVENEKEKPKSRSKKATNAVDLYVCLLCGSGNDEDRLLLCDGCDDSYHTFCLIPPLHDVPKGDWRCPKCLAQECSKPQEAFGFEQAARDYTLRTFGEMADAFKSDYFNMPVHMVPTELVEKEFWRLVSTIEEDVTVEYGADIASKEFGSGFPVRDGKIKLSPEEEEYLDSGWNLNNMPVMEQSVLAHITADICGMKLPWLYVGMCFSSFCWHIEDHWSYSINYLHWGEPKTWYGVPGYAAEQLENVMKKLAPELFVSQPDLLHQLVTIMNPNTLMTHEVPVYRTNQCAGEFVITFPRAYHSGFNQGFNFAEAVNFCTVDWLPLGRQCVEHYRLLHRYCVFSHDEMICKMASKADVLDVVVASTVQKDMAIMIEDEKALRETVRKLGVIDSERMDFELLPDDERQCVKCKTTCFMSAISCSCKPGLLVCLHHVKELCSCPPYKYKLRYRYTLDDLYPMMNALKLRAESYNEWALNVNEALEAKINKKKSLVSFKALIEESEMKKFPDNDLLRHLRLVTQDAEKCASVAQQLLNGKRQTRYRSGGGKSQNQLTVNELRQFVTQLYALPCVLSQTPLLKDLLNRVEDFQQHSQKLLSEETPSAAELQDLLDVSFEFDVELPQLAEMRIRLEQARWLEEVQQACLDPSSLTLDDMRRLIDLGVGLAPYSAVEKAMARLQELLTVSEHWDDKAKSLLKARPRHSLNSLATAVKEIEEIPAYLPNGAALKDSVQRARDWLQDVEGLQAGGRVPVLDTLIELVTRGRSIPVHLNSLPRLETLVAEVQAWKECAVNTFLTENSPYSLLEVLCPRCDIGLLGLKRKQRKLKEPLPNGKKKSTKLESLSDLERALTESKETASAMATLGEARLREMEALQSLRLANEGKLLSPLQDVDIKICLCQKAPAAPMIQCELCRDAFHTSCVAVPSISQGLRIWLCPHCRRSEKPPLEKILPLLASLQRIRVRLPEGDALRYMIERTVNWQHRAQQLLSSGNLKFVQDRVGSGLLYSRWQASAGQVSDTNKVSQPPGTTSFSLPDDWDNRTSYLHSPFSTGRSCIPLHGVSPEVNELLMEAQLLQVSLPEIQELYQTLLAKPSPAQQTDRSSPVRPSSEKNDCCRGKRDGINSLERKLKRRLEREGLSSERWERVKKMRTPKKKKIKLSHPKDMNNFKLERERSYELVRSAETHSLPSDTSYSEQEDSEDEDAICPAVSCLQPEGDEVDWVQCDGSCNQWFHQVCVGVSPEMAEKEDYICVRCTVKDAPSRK
T3 sequence (O15054 1-1682 isoform O15054-1): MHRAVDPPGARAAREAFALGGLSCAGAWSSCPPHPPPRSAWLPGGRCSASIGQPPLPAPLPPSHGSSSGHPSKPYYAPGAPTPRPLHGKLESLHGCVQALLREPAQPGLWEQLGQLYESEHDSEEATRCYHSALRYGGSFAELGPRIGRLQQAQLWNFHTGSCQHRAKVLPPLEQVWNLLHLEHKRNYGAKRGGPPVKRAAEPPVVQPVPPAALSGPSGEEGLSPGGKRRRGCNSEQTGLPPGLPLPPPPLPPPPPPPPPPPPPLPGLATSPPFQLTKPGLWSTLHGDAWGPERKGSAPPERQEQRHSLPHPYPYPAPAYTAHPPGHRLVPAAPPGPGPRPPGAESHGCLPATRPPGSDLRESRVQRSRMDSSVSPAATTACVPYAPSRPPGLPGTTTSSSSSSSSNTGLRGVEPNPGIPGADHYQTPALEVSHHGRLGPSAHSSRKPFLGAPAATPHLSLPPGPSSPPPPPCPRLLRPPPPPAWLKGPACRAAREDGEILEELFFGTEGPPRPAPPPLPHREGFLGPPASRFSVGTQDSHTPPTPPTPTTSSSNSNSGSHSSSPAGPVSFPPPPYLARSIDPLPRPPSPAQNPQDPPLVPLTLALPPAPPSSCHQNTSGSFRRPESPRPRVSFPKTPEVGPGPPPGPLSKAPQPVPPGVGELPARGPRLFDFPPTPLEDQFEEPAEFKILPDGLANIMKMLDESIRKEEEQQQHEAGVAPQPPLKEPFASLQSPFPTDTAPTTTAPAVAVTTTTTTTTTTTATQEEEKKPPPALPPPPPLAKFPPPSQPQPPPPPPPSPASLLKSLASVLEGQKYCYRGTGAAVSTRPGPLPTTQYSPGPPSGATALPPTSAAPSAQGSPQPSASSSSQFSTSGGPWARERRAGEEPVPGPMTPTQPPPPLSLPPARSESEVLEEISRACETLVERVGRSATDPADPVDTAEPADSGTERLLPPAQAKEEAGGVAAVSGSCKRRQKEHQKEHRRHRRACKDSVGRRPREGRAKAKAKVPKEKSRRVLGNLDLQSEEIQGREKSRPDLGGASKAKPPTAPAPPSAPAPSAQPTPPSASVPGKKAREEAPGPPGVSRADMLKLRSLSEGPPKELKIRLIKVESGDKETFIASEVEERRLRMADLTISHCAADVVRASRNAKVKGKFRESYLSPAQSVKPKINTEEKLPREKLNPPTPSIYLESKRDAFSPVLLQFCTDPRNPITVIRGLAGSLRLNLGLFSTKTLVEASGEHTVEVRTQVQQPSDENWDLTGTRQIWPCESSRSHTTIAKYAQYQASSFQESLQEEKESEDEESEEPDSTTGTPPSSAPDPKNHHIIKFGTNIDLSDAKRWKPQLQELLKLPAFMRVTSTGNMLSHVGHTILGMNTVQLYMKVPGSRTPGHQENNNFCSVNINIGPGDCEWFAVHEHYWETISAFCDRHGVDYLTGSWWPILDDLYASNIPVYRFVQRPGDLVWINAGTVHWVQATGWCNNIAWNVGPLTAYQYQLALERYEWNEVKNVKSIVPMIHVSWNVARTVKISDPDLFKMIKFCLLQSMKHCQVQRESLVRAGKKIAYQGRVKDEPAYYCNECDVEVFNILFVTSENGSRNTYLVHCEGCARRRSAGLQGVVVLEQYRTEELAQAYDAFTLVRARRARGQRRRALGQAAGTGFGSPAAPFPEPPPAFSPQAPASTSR
T2 sequence (O15550 whole entry): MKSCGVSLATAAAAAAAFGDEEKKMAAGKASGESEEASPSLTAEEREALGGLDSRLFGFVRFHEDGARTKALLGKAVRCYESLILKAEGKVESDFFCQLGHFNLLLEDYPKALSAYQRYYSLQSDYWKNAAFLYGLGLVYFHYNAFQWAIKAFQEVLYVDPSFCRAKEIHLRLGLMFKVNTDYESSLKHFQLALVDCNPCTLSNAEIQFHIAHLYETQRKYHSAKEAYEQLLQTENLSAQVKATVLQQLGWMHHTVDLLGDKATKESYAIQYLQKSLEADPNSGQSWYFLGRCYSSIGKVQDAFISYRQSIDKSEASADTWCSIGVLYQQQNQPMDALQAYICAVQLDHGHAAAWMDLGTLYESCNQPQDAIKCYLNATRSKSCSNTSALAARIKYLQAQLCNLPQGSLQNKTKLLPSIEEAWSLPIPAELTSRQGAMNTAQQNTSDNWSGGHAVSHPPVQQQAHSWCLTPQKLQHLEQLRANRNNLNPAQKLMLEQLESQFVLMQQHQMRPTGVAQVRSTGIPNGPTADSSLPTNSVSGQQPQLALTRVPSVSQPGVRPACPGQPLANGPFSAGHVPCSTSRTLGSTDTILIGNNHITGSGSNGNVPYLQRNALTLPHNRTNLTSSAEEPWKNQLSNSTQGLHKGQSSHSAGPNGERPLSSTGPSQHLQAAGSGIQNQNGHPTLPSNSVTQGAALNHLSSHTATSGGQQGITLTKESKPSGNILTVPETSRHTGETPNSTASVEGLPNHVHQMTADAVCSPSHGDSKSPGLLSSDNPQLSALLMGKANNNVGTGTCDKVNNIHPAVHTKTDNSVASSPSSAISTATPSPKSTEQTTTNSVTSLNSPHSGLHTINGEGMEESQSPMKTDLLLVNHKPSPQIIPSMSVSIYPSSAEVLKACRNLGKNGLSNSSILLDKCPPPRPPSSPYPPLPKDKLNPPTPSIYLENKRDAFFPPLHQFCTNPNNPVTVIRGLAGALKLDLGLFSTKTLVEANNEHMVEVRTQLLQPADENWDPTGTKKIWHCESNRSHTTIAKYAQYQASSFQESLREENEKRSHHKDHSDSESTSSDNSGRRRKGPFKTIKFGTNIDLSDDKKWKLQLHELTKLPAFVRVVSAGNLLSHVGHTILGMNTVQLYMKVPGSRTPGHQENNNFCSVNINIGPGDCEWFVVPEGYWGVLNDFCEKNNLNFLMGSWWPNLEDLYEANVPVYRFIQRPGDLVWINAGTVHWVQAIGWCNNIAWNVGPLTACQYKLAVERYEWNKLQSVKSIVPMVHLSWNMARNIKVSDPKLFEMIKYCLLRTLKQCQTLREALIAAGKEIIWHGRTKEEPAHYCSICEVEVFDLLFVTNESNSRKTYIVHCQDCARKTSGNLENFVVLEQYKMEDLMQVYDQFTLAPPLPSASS

For orientation: IC50 means the concentration that gives 50% inhibition. For the compound `Cc1ccc(-n2sc3ccccc3c2=O)cc1` [PBIT, 2-4(4-methylphenyl)-1,2-benzisothiazol-3(2H)-one], the “inhibition of JARID1B (maximum)” value in assay [1] is “up to 95%”. The IC50 is about 3 µM in [1] (Fe (II) concentration not stated, read-out: IC50 against JARID1B); 3.17 µM in assay [1] (dose response at 15 μM (low) Fe (II), read-out: IC50 (μM) low Fe (II)); 2.78 µM in [1] (dose response at 50 μM (high) Fe (II), read-out: IC50 (μM) high Fe (II)); 28 µM in assay [13]. Also, the JARID1B demethylase activity result in [1] (compound 10 μM, 64 nM bio-H3K4me3 peptide) is recorded as “inhibited”. In addition, in [2], the UTX demethylase activity entry is listed as “minimal effect; also recorded: did not inhibit”. For the same compound, the JMJD3 demethylase activity entry in [3] was “minimal effect; also recorded: did not inhibit”. The “JARID1B overexpression-induced decrease of H3K4me3” value in assay [4] is on record as “prevented; also recorded: decrease was blocked”. For the same compound, the “cell proliferation (WST-1)” value is given as “minimal toxicity” in assay [5]; “did not inhibit growth; also recorded: minimal toxicity” in assay [6]; “killed most” in assay [7]; “killed most” in assay [8]; “small inhibitory effects” in assay [9]. The “sensitivity of proliferation to treatment (WST-1)” value in assay [10] was “sensitive”; in assay [11], “sensitive”; in [12], “least sensitive”.
